Test results taken from PubChem BioAssay (NCI).
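Each compound was tested at five concentrations against cells in 96-well plates for 48 hours. TGI denotes the concentration required for complete inhibition of growth.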

Columns and labels:
Assay in all cases: NCI-60 cell line screen, 48 h
786-0 renal = test system: 786-0 renal
A498 renal = test system: A498 renal
A549 NSCLC = test system: A549 NSCLC
ACHN renal = test system: ACHN renal
BT-549 breast = test system: BT-549 breast
CAKI-1 renal = test system: CAKI-1 renal
CCRF-CEM leukemia = test system: CCRF-CEM leukemia
COLO 205 colon = test system: COLO 205 colon
DLD-1 colon = test system: DLD-1 colon
DMS 114 small cell lung = test system: DMS 114 small cell lung
DMS 273 small cell lung = test system: DMS 273 small cell lung
DU-145 prostate = test system: DU-145 prostate
EKVX NSCLC = test system: EKVX NSCLC
HCC-2998 colon = test system: HCC-2998 colon
HCT-116 colon = test system: HCT-116 colon
HCT-15 colon = test system: HCT-15 colon
HL-60(TB) leukemia = test system: HL-60(TB) leukemia
HOP-18 NSCLC = test system: HOP-18 NSCLC
HOP-62 NSCLC = test system: HOP-62 NSCLC
HOP-92 NSCLC = test system: HOP-92 NSCLC
HS 578T breast = test system: HS 578T breast
HT29 colon = test system: HT29 colon
IGROV1 ovarian = test system: IGROV1 ovarian
K-562 leukemia = test system: K-562 leukemia
KM12 colon = test system: KM12 colon
KM20L2 colon = test system: KM20L2 colon
LOX IMVI melanoma = test system: LOX IMVI melanoma
LXFL 529 NSCLC = test system: LXFL 529 NSCLC
M14 melanoma = test system: M14 melanoma
M19-MEL melanoma = test system: M19-MEL melanoma
MALME-3M melanoma = test system: MALME-3M melanoma
MCF7 breast = test system: MCF7 breast
MDA-MB-231 breast = test system: MDA-MB-231 breast
MDA-MB-435 = test system: MDA-MB-435
MDA-N = test system: MDA-N
MOLT-4 leukemia = test system: MOLT-4 leukemia
NCI-H226 lung = test system: NCI-H226 lung
NCI-H23 lung = test system: NCI-H23 lung
NCI-H460 lung = test system: NCI-H460 lung
NCI-H522 lung = test system: NCI-H522 lung
OVCAR-3 ovarian = test system: OVCAR-3 ovarian
OVCAR-4 ovarian = test system: OVCAR-4 ovarian
OVCAR-5 ovarian = test system: OVCAR-5 ovarian
OVCAR-8 ovarian = test system: OVCAR-8 ovarian
PC-3 prostate = test system: PC-3 prostate
RPMI-8226 leukemia = test system: RPMI-8226 leukemia
RXF 393 renal = test system: RXF 393 renal
SF-268 CNS = test system: SF-268 CNS
SF-295 CNS = test system: SF-295 CNS
SF-539 CNS = test system: SF-539 CNS
SK-MEL-2 melanoma = test system: SK-MEL-2 melanoma
SK-MEL-28 melanoma = test system: SK-MEL-28 melanoma
SK-MEL-5 melanoma = test system: SK-MEL-5 melanoma
SK-OV-3 ovarian = test system: SK-OV-3 ovarian
SN12C renal = test system: SN12C renal
SNB-19 CNS = test system: SNB-19 CNS
SNB-75 CNS = test system: SNB-75 CNS
SNB-78 CNS = test system: SNB-78 CNS
SR leukemia = test system: SR leukemia
SW-620 colon = test system: SW-620 colon
T-47D breast = test system: T-47D breast
TK-10 renal = test system: TK-10 renal
U251 CNS = test system: U251 CNS
UACC-257 melanoma = test system: UACC-257 melanoma
UACC-62 melanoma = test system: UACC-62 melanoma
UO-31 renal = test system: UO-31 renal
XF 498 CNS = test system: XF 498 CNS

COc1ccc(N2C(=O)/C(=C/c3ccc(N(CCC#N)CCC#N)cc3C)N=C2c2cc([N+](=O)[O-])ccc2Cl)cc1
TGI (786-0 renal): 43.7 µM
TGI (A498 renal): > 56.2 µM
TGI (A549 NSCLC): > 72 µM
TGI (ACHN renal): > 63.1 µM
TGI (BT-549 breast): > 100 µM
TGI (CAKI-1 renal): > 36.3 µM
TGI (CCRF-CEM leukemia): 37.7 µM
TGI (COLO 205 colon): 25.6 µM
TGI (DLD-1 colon): > 100 µM
TGI (DMS 114 small cell lung): > 23.5 µM
TGI (DMS 273 small cell lung): > 27 µM
TGI (DU-145 prostate): 34.8 µM
TGI (EKVX NSCLC): > 46.4 µM
TGI (HCC-2998 colon): 15.2 µM
TGI (HCT-116 colon): 29.3 µM
TGI (HCT-15 colon): 59.5 µM
TGI (HL-60(TB) leukemia): 26.6 µM
TGI (HOP-18 NSCLC): > 100 µM
TGI (HOP-62 NSCLC): > 63.1 µM
TGI (HOP-92 NSCLC): > 100 µM
TGI (HS 578T breast): 5.96 µM
TGI (HT29 colon): 9.95 µM
TGI (IGROV1 ovarian): > 63.1 µM
TGI (K-562 leukemia): 36.7 µM
TGI (KM12 colon): 45.8 µM
TGI (KM20L2 colon): 7.39 µM
TGI (LOX IMVI melanoma): > 56.2 µM
TGI (LXFL 529 NSCLC): > 100 µM
TGI (M14 melanoma): 24.4 µM
TGI (M19-MEL melanoma): > 100 µM
TGI (MALME-3M melanoma): > 56.2 µM
TGI (MCF7 breast): > 46.4 µM
TGI (MDA-MB-231 breast): 49.4 µM
TGI (MDA-MB-435): 6.1 µM
TGI (MDA-N): 4.98 µM
TGI (MOLT-4 leukemia): 53.5 µM
TGI (NCI-H226 lung): 42.8 µM
TGI (NCI-H23 lung): > 61.6 µM
TGI (NCI-H460 lung): > 56.2 µM
TGI (NCI-H522 lung): 12.5 µM
TGI (OVCAR-3 ovarian): 11.3 µM
TGI (OVCAR-4 ovarian): > 46.4 µM
TGI (OVCAR-5 ovarian): > 63.1 µM
TGI (OVCAR-8 ovarian): 45.7 µM
TGI (PC-3 prostate): > 46.4 µM
TGI (RPMI-8226 leukemia): > 63.1 µM
TGI (RXF 393 renal): > 46.4 µM
TGI (SF-268 CNS): > 63.1 µM
TGI (SF-295 CNS): 5.8 µM
TGI (SF-539 CNS): 7.22 µM
TGI (SK-MEL-2 melanoma): 39.6 µM
TGI (SK-MEL-28 melanoma): > 63.1 µM
TGI (SK-MEL-5 melanoma): 51.8 µM
TGI (SK-OV-3 ovarian): > 63.1 µM
TGI (SN12C renal): > 56.2 µM
TGI (SNB-19 CNS): 28.9 µM
TGI (SNB-75 CNS): 7.06 µM
TGI (SNB-78 CNS): > 100 µM
TGI (SR leukemia): 35.4 µM
TGI (SW-620 colon): > 56.2 µM
TGI (T-47D breast): > 100 µM
TGI (TK-10 renal): > 63.1 µM
TGI (U251 CNS): 43.3 µM
TGI (UACC-257 melanoma): > 56.2 µM
TGI (UACC-62 melanoma): > 46.4 µM
TGI (UO-31 renal): > 63.1 µM
TGI (XF 498 CNS): 8.12 µM
